Target: T1, 5-HT1B (Rattus norvegicus, UniProt P28564)
T1 construct: from tissue; host or cells: Wistar rat cortex membranes
Assay: [3H]GR125743 receptor binding in rat cortex
Design: species or system Wistar rat
Conditions: [3H]GR125743 (5-HT1B/1D), rat cortex; read-out: Ki 5-HT1B
Protocol: The homogenate was pressure filtered through muslin. Filtrate was centrifuged at 1000 g for 10 min. […] Protein content was determined by Bradford's method.

T1 sequence (P28564 whole entry): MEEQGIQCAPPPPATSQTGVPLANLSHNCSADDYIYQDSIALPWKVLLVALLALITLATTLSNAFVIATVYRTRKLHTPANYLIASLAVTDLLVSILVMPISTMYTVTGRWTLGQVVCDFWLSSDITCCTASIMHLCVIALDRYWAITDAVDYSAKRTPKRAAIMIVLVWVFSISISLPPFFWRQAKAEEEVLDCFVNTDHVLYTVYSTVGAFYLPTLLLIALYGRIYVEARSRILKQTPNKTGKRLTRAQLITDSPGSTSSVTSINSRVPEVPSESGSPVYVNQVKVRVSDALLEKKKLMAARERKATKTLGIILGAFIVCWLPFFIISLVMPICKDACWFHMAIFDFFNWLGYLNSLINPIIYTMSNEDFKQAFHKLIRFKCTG

SMILES: CC=Cc1ccc(OCC(O)CN2CCN(c3cccc(Cl)c3)CC2)c(OC)c1 (stereo not shown) [Compound 1]
- Ki: 0.67 µM

Source: US6887878B2, “KMST isoeugenol derivatives and pharmaceutical activity” (Ing-Jun Chen, priority 2003, dated 2005)
